# According to PubChem BioAssay AID334 (DTP/NCI, 2004):
# Where “and” joins values, the source holds several entries; their conditions need not be identical. Equal entries are not always repeated. Toxic doses and inconclusive results are not listed.
# Test system: CD2F1 mice, intracerebral P388 leukemia, median survival T/C%
# Assay: NCI In Vivo Anticancer Drug Screen. Data for tumor model P388 Leukemia (intracerebral) in CD2F1 (CDF1) mice
# Settings: endpoint: median survival time, higher = longer survival
# Procedure: The antitumor activity of compounds was measured in mice bearing transplantable tumors. Survival or tumor size were measured and the results are expressed as the measurement made in the treated group (T) divided by the measurement made in the vehicle treated control group (C). The tumor model used in this assay is P388 Leukemia (intracerebral) in CD2F1 (CDF1) mice
# [1] = dose: 12.5 mg/kg/injection, schedule: Q01DX009 (ip), vehicle: saline with Tween-80
# [2] = dose: 25.0 mg/kg/injection, schedule: Q01DX009 (ip), vehicle: saline with Tween-80
structure (smiles),measurement,setting,value
CS(C)=O,T/C,"dose: 1000.0 mg/kg/injection, schedule: Q01DX005 (ip), vehicle: saline",104 % of control and 107 % of control
same,T/C,"dose: 2000.0 mg/kg/injection, schedule: Q01DX005 (ip), vehicle: saline",100 % of control and 104 % of control
same,T/C,"dose: 4000.0 mg/kg/injection, schedule: Q01DX005 (ip), vehicle: saline",100 % of control and 105 % of control
same,T/C,"dose: 8000.0 mg/kg/injection, schedule: Q01DX005 (ip), vehicle: saline",105 % of control and 108 % of control
CCN(C)N=Nc1ccc(C(N)=O)cc1,T/C,"dose: 25.0 mg/kg/injection, schedule: Q01DX009 (ip), vehicle: Klucel (hydroxypropylcellulose) (HPC)",101 % of control
same,T/C,"dose: 100.0 mg/kg/injection, schedule: Q01DX009 (ip), vehicle: Klucel (hydroxypropylcellulose) (HPC)",154 % of control
COc1cccc2c1C(=O)c1c(O)c3c(c(O)c1C2=O)CC(O)(C(=O)CO)CC3OC1CC(N)C(O)C(C)O1 (stereo unspecified),T/C,"dose: 0.78 mg/kg/injection, schedule: Q04DX003 (ip), vehicle: saline",107 % of control
same,T/C,"dose: 1.56 mg/kg/injection, schedule: Q04DX003 (ip), vehicle: saline",98 % of control
same,T/C,"dose: 3.12 mg/kg/injection, schedule: Q04DX003 (ip), vehicle: saline",106 % of control
same,T/C,"dose: 3.75 mg/kg/injection, schedule: Q04DX003 (ip), vehicle: clinical formulation",100 % of control
same,T/C,"dose: 3.75 mg/kg/injection, schedule: Q04DX003 (iv), vehicle: clinical formulation",100 % of control
same,T/C,"dose: 6.25 mg/kg/injection, schedule: Q04DX003 (ip), vehicle: saline",97 % of control
same,T/C,"dose: 7.5 mg/kg/injection, schedule: Q04DX003 (ip), vehicle: clinical formulation",103 % of control
same,T/C,"dose: 7.5 mg/kg/injection, schedule: Q04DX003 (iv), vehicle: clinical formulation",99 % of control
same,T/C,"dose: 12.5 mg/kg/injection, schedule: Q04DX003 (ip), vehicle: saline",103 % of control
same,T/C,"dose: 15.0 mg/kg/injection, schedule: Q04DX003 (ip), vehicle: clinical formulation",100 % of control
same,T/C,"dose: 15.0 mg/kg/injection, schedule: Q04DX003 (iv), vehicle: clinical formulation",106 % of control
same,T/C,"dose: 25.0 mg/kg/injection, schedule: Q04DX003 (ip), vehicle: saline",91 % of control
same,T/C,"dose: 30.0 mg/kg/injection, schedule: Q04DX003 (iv), vehicle: clinical formulation",90 % of control
CCN(CC)c1ccc2cc3ccc(=[N+](CC)CC)cc-3oc2c1,T/C,"dose: 4.0 mg/kg/injection, schedule: Q01DX005 (ip), vehicle: suspension in saline",102 % of control
same,T/C,"dose: 8.0 mg/kg/injection, schedule: Q01DX005 (ip), vehicle: suspension in saline",103 % of control
COc1ccc2cc1Oc1ccc(cc1)C[C@H]1c3cc(c(OC)cc3CCN1C)Oc1c(OC)c(OC)cc3c1[C@H](C2)N(C)CC3,T/C,"dose: 50.0 mg/kg/injection, schedule: Q01DX005 (ip), vehicle: Klucel (hydroxypropylcellulose) (HPC)",105 % of control and 106 % of control
same,T/C,"dose: 100.0 mg/kg/injection, schedule: Q01DX005 (ip), vehicle: Klucel (hydroxypropylcellulose) (HPC)",102 % of control and 105 % of control
same,T/C,"dose: 200.0 mg/kg/injection, schedule: Q01DX005 (ip), vehicle: Klucel (hydroxypropylcellulose) (HPC)",99 % of control and 108 % of control
same,T/C,"dose: 400.0 mg/kg/injection, schedule: Q01DX005 (ip), vehicle: Klucel (hydroxypropylcellulose) (HPC)",97 % of control and 104 % of control
Nc1ncn(C2OC(CO)C(O)C2O)c(=O)n1 (stereo unspecified),T/C,"dose: 12.5 mg/kg/injection, schedule: Q01DX009 (ip), vehicle: saline",219 % of control
same,T/C,"dose: 25.0 mg/kg/injection, schedule: Q01DX009 (ip), vehicle: saline",230 % of control
same,T/C,"dose: 50.0 mg/kg/injection, schedule: Q01DX009 (ip), vehicle: saline",290 % of control
same,T/C,"dose: 100.0 mg/kg/injection, schedule: Q01DX009 (ip), vehicle: saline",303 % of control
same,T/C,"dose: 200.0 mg/kg/injection, schedule: Q01DX009 (ip), vehicle: saline",303 % of control
COc1cc(NC(=O)CN(CCCl)CCCl)cc(OC)c1OC,T/C,[1],113 % of control and 102 % of control
same,T/C,[2],104 % of control and 107 % of control
same,T/C,"dose: 50.0 mg/kg/injection, schedule: Q01DX009 (ip), vehicle: saline with Tween-80",114 % of control and 118 % of control
same,T/C,"dose: 100.0 mg/kg/injection, schedule: Q01DX009 (ip), vehicle: saline with Tween-80",114 % of control
same,T/C,"dose: 200.0 mg/kg/injection, schedule: Q01DX009 (ip), vehicle: saline with Tween-80",87 % of control
CCN(CC)CCCC(C)Nc1c2ccc(Cl)cc2nc2ccc(OC)cc12 (stereo unspecified),T/C,"dose: 8.0 mg/kg/injection, schedule: Q01DX009 (ip), vehicle: suspension in saline",96 % of control
same,T/C,"dose: 16.0 mg/kg/injection, schedule: Q01DX009 (ip), vehicle: suspension in saline",96 % of control
same,T/C,"dose: 32.0 mg/kg/injection, schedule: Q01DX009 (ip), vehicle: suspension in saline",100 % of control
same,T/C,"dose: 64.0 mg/kg/injection, schedule: Q01DX009 (ip), vehicle: suspension in saline",88 % of control
NC(C/[N+]([O-])=N/O)C(=O)O (stereo unspecified),T/C,"dose: 7.02 mg/kg/injection, schedule: Q01DX009 (ip), vehicle: saline with Tween-80",90 % of control
same,T/C,"dose: 7.02 mg/kg/injection, schedule: Q01DX009 (ip), vehicle: saline",110 % of control
same,T/C,"dose: 14.06 mg/kg/injection, schedule: Q01DX009 (ip), vehicle: saline with Tween-80",98 % of control
same,T/C,"dose: 14.06 mg/kg/injection, schedule: Q01DX009 (ip), vehicle: saline",99 % of control
same,T/C,"dose: 28.12 mg/kg/injection, schedule: Q01DX009 (ip), vehicle: saline with Tween-80",95 % of control
same,T/C,"dose: 28.12 mg/kg/injection, schedule: Q01DX009 (ip), vehicle: saline",108 % of control
same,T/C,"dose: 56.25 mg/kg/injection, schedule: Q01DX009 (ip), vehicle: saline with Tween-80",106 % of control
same,T/C,"dose: 56.25 mg/kg/injection, schedule: Q01DX009 (ip), vehicle: saline",108 % of control and 112 % of control
same,T/C,"dose: 112.5 mg/kg/injection, schedule: Q01DX009 (ip), vehicle: saline with Tween-80",96 % of control
CCCCCc1cc(O)c2c(c1)OC(C)(C)[C@@H]1CCC(C)=C[C@@H]21,T/C,"dose: 2.75 mg/kg/injection, schedule: Q01DX005 (iv), vehicle: other",105 % of control
same,T/C,"dose: 5.5 mg/kg/injection, schedule: Q01DX005 (iv), vehicle: other",101 % of control
same,T/C,"dose: 11.0 mg/kg/injection, schedule: Q01DX005 (iv), vehicle: other",103 % of control
same,T/C,"dose: 22.0 mg/kg/injection, schedule: Q01DX005 (iv), vehicle: other",104 % of control
same,T/C,"dose: 44.0 mg/kg/injection, schedule: Q01DX005 (iv), vehicle: other",101 % of control
CCC(=O)O[C@H]1CC[C@H]2[C@@H]3CCC4=CC(=O)CC[C@]4(C)[C@H]3CC[C@]12C,T/C,"dose: 8.0 mg/kg/injection, schedule: Q01DX009 (ip), vehicle: saline with Tween-80",105 % of control
same,T/C,"dose: 8.0 mg/kg/injection, schedule: Q01DX009 (ip), vehicle: saline",178 % of control
same,T/C,"dose: 16.0 mg/kg/injection, schedule: Q01DX009 (ip), vehicle: saline with Tween-80",108 % of control
same,T/C,"dose: 16.0 mg/kg/injection, schedule: Q01DX009 (ip), vehicle: saline",106 % of control
same,T/C,"dose: 32.0 mg/kg/injection, schedule: Q01DX009 (ip), vehicle: saline with Tween-80",105 % of control
same,T/C,"dose: 32.0 mg/kg/injection, schedule: Q01DX009 (ip), vehicle: saline",99 % of control
same,T/C,"dose: 64.0 mg/kg/injection, schedule: Q01DX009 (ip), vehicle: saline with Tween-80",117 % of control
same,T/C,"dose: 64.0 mg/kg/injection, schedule: Q01DX009 (ip), vehicle: saline",100 % of control
same,T/C,"dose: 128.0 mg/kg/injection, schedule: Q01DX009 (ip), vehicle: saline with Tween-80",100 % of control
same,T/C,"dose: 128.0 mg/kg/injection, schedule: Q01DX009 (ip), vehicle: saline",100 % of control
same,T/C,"dose: 256.0 mg/kg/injection, schedule: Q01DX009 (ip), vehicle: saline with Tween-80",107 % of control
same,T/C,"dose: 256.0 mg/kg/injection, schedule: Q01DX009 (ip), vehicle: saline",100 % of control
same,T/C,"dose: 512.0 mg/kg/injection, schedule: Q01DX009 (ip), vehicle: saline with Tween-80",106 % of control
same,T/C,"dose: 512.0 mg/kg/injection, schedule: Q01DX009 (ip), vehicle: saline",109 % of control
CC(=O)N(C)c1ccc(Nc2cc(C)[nH]c3ccc4ncnc4c23)cc1,T/C,"dose: 10.0 mg/kg/injection, schedule: Q01DX005 (ip), vehicle: saline",107 % of control
same,T/C,"dose: 20.0 mg/kg/injection, schedule: Q01DX005 (ip), vehicle: saline",106 % of control
same,T/C,"dose: 40.0 mg/kg/injection, schedule: Q01DX005 (ip), vehicle: saline",104 % of control
CC(C)(C)N1CC1CNC(=O)C(=O)NCC1CN1C(C)(C)C (stereo unspecified),T/C,"dose: 3.0 mg/kg/injection, schedule: Q01DX009 (ip), vehicle: saline with Tween-80",101 % of control
same,T/C,"dose: 3.12 mg/kg/injection, schedule: Q01DX009 (ip), vehicle: saline with Tween-80",104 % of control and 107 % of control
same,T/C,"dose: 6.0 mg/kg/injection, schedule: Q01DX009 (ip), vehicle: saline with Tween-80",121 % of control
same,T/C,"dose: 6.25 mg/kg/injection, schedule: Q01DX009 (ip), vehicle: saline with Tween-80",117 % of control and 111 % of control
same,T/C,[1],177 % of control
same,T/C,[2],105 % of control
